Data taken from patent US9283196B1, “Cycloalkyl-diamines for CNS disorders” (MediSynergics, LLC, priority 2013, dated 2016).

Columns and labels:
[1] = molecular target: kappa opioid receptors (KOR) (Homo sapiens, UniProt P41145); assay: kappa opioid receptor (KOR) Ki determination by NIMH PDSP; format: binding
Description: (§1) The compounds from the above Examples were tested for activity vs. kappa opioid receptors (KOR) and for Sigma-1 activity. Ki determinations were generously provided by the National Institute of Mental Health's Psychoactive Drug Screening Program (PDSP), Contract # HHSN-271-2013-00017-C (NIMH PDSP). The NIMH PDSP is Directed by Bryan L. Roth MD, PhD at the University of North Carolina at Chapel Hill and Project Officer Jamie Driscoll at NIMH, Bethesda Md. U.S.A. Procedures employed by the PDSP are described in the NIMH PDSP Assay Protocol Book, Version II.

[2] = molecular target: Sigma-1; assay: Sigma-1 Ki determination by NIMH PDSP; format: binding
Description: as §1

Chain of kappa opioid receptors (KOR) (P41145 whole entry): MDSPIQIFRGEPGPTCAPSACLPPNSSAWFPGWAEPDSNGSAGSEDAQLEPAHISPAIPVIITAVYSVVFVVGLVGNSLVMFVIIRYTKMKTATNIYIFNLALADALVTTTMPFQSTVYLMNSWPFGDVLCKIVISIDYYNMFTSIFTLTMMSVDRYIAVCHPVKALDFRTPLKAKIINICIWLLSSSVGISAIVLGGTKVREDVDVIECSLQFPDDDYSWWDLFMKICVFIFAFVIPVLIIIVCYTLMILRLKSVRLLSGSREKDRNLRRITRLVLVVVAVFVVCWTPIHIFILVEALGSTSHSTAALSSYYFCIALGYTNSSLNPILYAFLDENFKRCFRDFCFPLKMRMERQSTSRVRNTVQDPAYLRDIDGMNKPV

Structure (SMILES)	Ki [1]	Ki [2]
CN[C@@]1(c2ccccc2Cl)CCCC[C@H]1NCCCN1CCOCC1 (relative stereo) [Example 16b]	798 nM	17 nM
CN[C@@]1(c2ccccc2Cl)CCCC[C@H]1NCCCc1ccccc1 (relative stereo) [Example 15b, Cis-1-(2-chlorophenyl)-N^2-(3-phenylpropyl)-N^1-methylcyclohexane-1,2-diamine]	139 nM	177 nM
CN[C@]1(c2ccccc2Cl)CCCC[C@H]1NCCCc1ccccc1 (relative stereo) [Example 15a, Trans-1-(2-chlorophenyl)-N^2-(3-phenylpropyl)-N^1-methylcyclohexane-1,2-diamine]	526 nM	2260 nM
CN[C@@]1(c2ccccc2Cl)CCCC[C@H]1NCCCN1CCN(C)CC1 (relative stereo) [Example 17b]	> 1000 nM	72 nM
CN[C@@]1(c2ccccc2Cl)CCCC[C@H]1NCCCn1ccnc1 (relative stereo) [Example 12b, Cis-1-(2-chlorophenyl)-N^2-(3-(1-imidazolyl)-propyl)-N^1-methylcyclohexane-1,2-diamine]	> 1000 nM	231 nM
CN[C@@]1(c2ccccc2Cl)CCCC[C@H]1NC1CCCCC1 (relative stereo) [Example 18b, Cis-1-(2-chlorophenyl)-N^2-cyclohexyl-N^1-methylcyclohexane-1,2-diamine]	608 nM	–
CN[C@]1(c2ccccc2Cl)CCCC[C@H]1NCCCN1CCN(C)CC1 (relative stereo) [Example 17a]	> 1000 nM	19 nM
